Test results published in patent publication US5498788A, “Inclusion complexes of clavulanic acid and of potassium salts thereof with hydrophobic β-cyclodextrin derivatives a process for the preparation thereof” (LEK, tovarna farmacevtskih, priority 1992, dated 1996).

What was measured:
[1] = Stability test of complexed and uncomplexed potassium clavulanate in artificial gastric juice (pH 1.2, 37° C.); type: physicochemical
Protocol: Stability test of complexed and uncomplexed potassium clavulanate in artificial gastric juice (pH 1.2) at the temperature of 37° C.
For the test the following samples were used:
Medium: artificial gastric juice--aq. HCl/NaCl buffer, pH 1.2, according to USP XXII.
Concentration of clavulanic acid (abbr. KA) in samples: 4 mg/ml.
The samples 1 to 3 were dissolved under stirring in an artificial gastric juice (100 ml) thermostated at 37° C., at the concentration of 4 mg/ml with regard to the clavulanic acid. Subsequently, 100 μl aliquots were taken at 5 min intervals for analysis by the HPLC, until a more than 95% KA decomposition was found. The solution was stirred all the time at the temperature of 37° C. ±0.5° C.
Separately, a series of ten 10 ml aliquots of KA-TA-β-CD suspension in a buffer of a pH of 1.2 (cone. of KA=4 mg/ml), which were constantly stirred during thermostating at 37° C., was prepared. At time intervals of 5 to 10 min, the individual aliquots were filtered (membrane filter 0.4 μm) and in the clear filtrate the concentration of clavulanic acid was determined by HPLC. The KA content at times up to 90 min of thermostating was noted.
The results of measurements after 15, 30, 45, 60 and 90 min of thermostating the samples at 37° C. in a buffer at pH 1.2 are shown in following Table.

[2] = cited from earlier work
β-lactamases = conditions: cited from earlier work
[3] = penicillinic and cephalosporin class; cited from earlier work

SMILES	time of 95% decomposition of clavulanic acid ([1]; conditions present in gastric juice, 37° C.)	solubility in water (in words) [2]	inhibition of β-lactamases (in words) (β-lactamases)	effect in combination with β-lactam antibiotics [3]	remaining at 0.25 h ([1]; artificial gastric juice, 15 min thermostating, pH 1.2, 37° C., KA 4 mg/ml, read-out: KA (undecomp.) as to the initial KA conc. (100%) in samples)	remaining at 0.5 h ([1]; artificial gastric juice, 30 min thermostating, pH 1.2, 37° C., KA 4 mg/ml, read-out: KA (undecomp.) as to the initial KA conc. (100%) in samples)	remaining at 0.75 h ([1]; artificial gastric juice, 45 min thermostating, pH 1.2, 37° C., KA 4 mg/ml, read-out: KA (undecomp.) as to the initial KA conc. (100%) in samples)	time of 95% decomposition of clavulanic acid (t95%) ([1]; pH 1.2, 37° C. (FIG. 9))
O=C(O)[C@H]1/C(=C/CO)O[C@@H]2CC(=O)N21 [clavulanic acid, (2R,5R,Z)-3-(2-hydroxyethylidene)-7-oxo-4-oxa-1-azabicyclo[3.2.0]heptane-2-carboxylic acid]	26 min	very well soluble in water	inhibitors of β-lactamases	synergistic effect	–	–	–	–
O=C(O)[C@H]1/C(=C/CO)O[C@@H]2CC(=O)N21 [KK, potassium clavulanate]	–	–	–	–	18.1%	1.3%	0%	26 min
